Laboratory results reported in ChEMBL document CHEMBL1128242, “Polyiodinated triglyceride analogs as potential computed tomography imaging agents for the liver” (J Med Chem, 1995).
Several values for one entry are separate records, joined by “and”; a condition that tells them apart may be missing. Equal entries are not always repeated.

Assays:
Rattus norvegicus [1] = test: Distribution of radioactivity was determined in spleen at 3h after intravenous administration of 1,3-Disubstituted Triacylglycerols in rats; assay type: ADME, organism-based; details: in vivo
Rattus norvegicus [2] = test: Polyacrylamide Gel Electrophoresis (PAGE) to determined the concentration of low density lipoprotein (LDL) in rats after iv administration of [125I]-labeled 2-Oleolyl 1,3-disubstituted triglycerols was reported; assay type: ADME, organism-based; details: in vivo
Rattus norvegicus [3] = test: Distribution of radioactivity was determined in blood at 24 hr after intravenous administration of [125I]-labeled 2-oleoglycerol 1,3-Bis-[omega-(3-amino-2,4,6-triiodophenyl)alkanoates] in rats; assay type: ADME, organism-based; details: in vivo
Rattus norvegicus [4] = test: Distribution of radioactivity was determined in spleen at 48 hr after intravenous administration of 1,3-Disubstituted Triacylglycerols in rats; assay type: ADME, organism-based; details: in vivo
Rattus norvegicus [5] = test: Distribution of radioactivity was determined in blood at 24 hr after intravenous administration of 1,3-Disubstituted Triacylglycerols in rats; assay type: ADME, organism-based; details: in vivo
Rattus norvegicus [6] = test: Distribution of radioactivity was determined in liver at 48 hr after intravenous administration of 1,3-Disubstituted Triacylglycerols in rats; assay type: ADME, organism-based; details: in vivo
Rattus norvegicus [7] = test: Distribution of radioactivity was determined in thyroid at 24 hr after intravenous administration of [125I]-labeled 2-oleoglycerol 1,3-Bis-[omega-(3-amino-2,4,6-triiodophenyl)alkanoates] in rats; assay type: ADME, organism-based, Thyroid gland; details: in vivo
Rattus norvegicus [8] = test: Distribution of radioactivity was determined in heart at 3h after intravenous administration of [125I]-labeled 2-oleoglycerol 1,3-Bis-[omega-(3-amino-2,4,6-triiodophenyl)alkanoates] in rats; assay type: ADME, organism-based; details: in vivo
Rattus norvegicus [9] = test: Distribution of radioactivity was determined in liver at 24 hr after intravenous administration of [125I]-labeled 2-oleoglycerol 1,3-Bis-[omega-(3-amino-2,4,6-triiodophenyl)alkanoates] in rats; assay type: ADME, organism-based; details: in vivo
Rattus norvegicus [10] = test: Distribution of radioactivity was determined in liver at 30 min after intravenous administration of 1,3-Disubstituted Triacylglycerols in rats; assay type: ADME, organism-based; details: in vivo, 0.5 h
Rattus norvegicus [11] = test: Distribution of radioactivity was determined in blood at 30 min after intravenous administration of [125I]-labeled 2-oleoglycerol 1,3-Bis-[omega-(3-amino-2,4,6-triiodophenyl)alkanoates] in rats; assay type: ADME, organism-based; details: in vivo, 0.5 h
Rattus norvegicus [12] = test: Distribution of radioactivity was determined in heart at 30 min after intravenous administration of [125I]-labeled 2-oleoglycerol 1,3-Bis-[omega-(3-amino-2,4,6-triiodophenyl)alkanoates] in rats; assay type: ADME, organism-based; details: in vivo, 0.5 h
Rattus norvegicus [13] = test: Polyacrylamide Gel Electrophoresis (PAGE) to determined the concentration of stacking gel(SG) in rats after iv administration of [125I]-labeled 2-Oleolyl 1,3-disubstituted triglycerols was reported; assay type: ADME, organism-based; details: in vivo
Rattus norvegicus [14] = test: Analysis of lipid-soluble radioactivity in liver 0.5 hour after iv administration of [125I]-labeled 2-Oleoyl 1,3-disubstituted Triacylglycerols and represented as % CHCl3/CH3OH from rat; assay type: ADME, organism-based; details: in vivo
Rattus norvegicus [15] = test: Distribution of radioactivity was determined in plasma at 3h after intravenous administration of [125I]-labeled 2-oleoglycerol 1,3-Bis-[omega-(3-amino-2,4,6-triiodophenyl)alkanoates] in rats; assay type: ADME, organism-based; details: in vivo
Rattus norvegicus [16] = test: Distribution of radioactivity was determined in lung at 24 hr after intravenous administration of [125I]-labeled 2-oleoglycerol 1,3-Bis-[omega-(3-amino-2,4,6-triiodophenyl)alkanoates] in rats; assay type: ADME, organism-based; details: in vivo
Rattus norvegicus [17] = test: Distribution of radioactivity was determined in kidney at 3h after intravenous administration of [125I]-labeled 2-oleoglycerol 1,3-Bis-[omega-(3-amino-2,4,6-triiodophenyl)alkanoates] in rats; assay type: ADME, organism-based; details: in vivo
Rattus norvegicus [18] = test: Analysis of lipid-soluble radioactivity in liver 0.5 hour after iv administration of [125I]-labeled 2-Oleoyl 1,3-disubstituted Triacylglycerols expressed as %parent compound (by TLC with authentic [125I]-labeled standard) from rat; assay type: ADME, organism-based; details: in vivo
Rattus norvegicus [19] = test: Distribution of radioactivity was determined in liver at 24 hr after intravenous administration of 1,3-Disubstituted Triacylglycerols in rats; assay type: ADME, organism-based; details: in vivo
Rattus norvegicus [20] = test: Distribution of radioactivity was determined in thyroid at 3h after intravenous administration of [125I]-labeled 2-oleoglycerol 1,3-Bis-[omega-(3-amino-2,4,6-triiodophenyl)alkanoates] in rats; assay type: ADME, organism-based, Thyroid gland; details: in vivo
Rattus norvegicus [21] = test: Polyacrylamide Gel Electrophoresis (PAGE) to determined the concentration of below albumin(BA) in rats after iv administration of [125I]-labeled 2-Oleolyl 1,3-disubstituted triglycerols was reported; assay type: ADME, organism-based; details: in vivo
Rattus norvegicus [22] = test: Distribution of radioactivity was determined in lung at 30 min after intravenous administration of [125I]-labeled 2-oleoglycerol 1,3-Bis-[omega-(3-amino-2,4,6-triiodophenyl)alkanoates] in rats; assay type: ADME, organism-based; details: in vivo, 0.5 h
Rattus norvegicus [23] = test: Analysis of lipid-soluble radioactivity in liver 24 hour after iv administration of [125I]-labeled 2-Oleoyl 1,3-disubstituted Triacylglycerols expressed as %parent compound (by TLC with authentic [125I]-labeled standard) from rat; assay type: ADME, organism-based; details: in vivo
Rattus norvegicus [24] = test: Analysis of lipid-soluble radioactivity in liver 24 hour after iv administration of [125I]-labeled 2-Oleoyl 1,3-disubstituted Triacylglycerols and represented as % CHCl3/CH3OH from rat; assay type: ADME, organism-based; details: in vivo
Rattus norvegicus [25] = test: Distribution of radioactivity was determined in liver at 3h after intravenous administration of 1,3-Disubstituted Triacylglycerols in rats; assay type: ADME, organism-based; details: in vivo
Rattus norvegicus [26] = test: Analysis of lipid-soluble radioactivity in plasma 0.5 hour after iv administration of [125I]-labeled 2-Oleoyl 1,3-disubstituted Triacylglycerols and represented as % CHCl3/CH3OH from rat; assay type: ADME, organism-based; details: in vivo
Rattus norvegicus [27] = test: Analysis of lipid-soluble radioactivity in plasma 24 hour after iv administration of [125I]-labeled 2-Oleoyl 1,3-disubstituted Triacylglycerols and represented as % CHCl3/CH3OH from rat; assay type: ADME, organism-based; details: in vivo
Rattus norvegicus [28] = test: Distribution of radioactivity was determined in lung at 3h after intravenous administration of [125I]-labeled 2-oleoglycerol 1,3-Bis-[omega-(3-amino-2,4,6-triiodophenyl)alkanoates] in rats; assay type: ADME, organism-based; details: in vivo
Rattus norvegicus [29] = test: Polyacrylamide Gel Electrophoresis (PAGE) to determined the concentration of albumin(ALB) in rats after iv administration of [125I]-labeled 2-Oleolyl 1,3-disubstituted triglycerols was reported; assay type: ADME, organism-based; details: in vivo
Rattus norvegicus [30] = test: Analysis of lipid-soluble radioactivity in plasma 0.5 hour after iv administration of [125I]-labeled 2-Oleoyl 1,3-disubstituted Triacylglycerols expressed as %parent compound (by TLC with authentic [125I]-labeled standard) from rat; assay type: ADME, organism-based; details: in vivo
Rattus norvegicus [31] = test: Distribution of radioactivity was determined in blood at 3h after intravenous administration of [125I]-labeled 2-oleoglycerol 1,3-Bis-[omega-(3-amino-2,4,6-triiodophenyl)alkanoates] in rats; assay type: ADME, organism-based; details: in vivo
Rattus norvegicus [32] = test: Distribution of radioactivity was determined in blood at 3h after intravenous administration of 1,3-Disubstituted Triacylglycerols in rats; assay type: ADME, organism-based; details: in vivo
Rattus norvegicus [33] = test: Distribution of radioactivity was determined in plasma at 24 hr after intravenous administration of [125I]-labeled 2-oleoglycerol 1,3-Bis-[omega-(3-amino-2,4,6-triiodophenyl)alkanoates] in rats; assay type: ADME, organism-based; set-up: unit not given here; details: in vivo
Rattus norvegicus [34] = test: Distribution of radioactivity was determined in kidney at 30 min after intravenous administration of [125I]-labeled 2-oleoglycerol 1,3-Bis-[omega-(3-amino-2,4,6-triiodophenyl)alkanoates] in rats; assay type: ADME, organism-based; details: in vivo, 0.5 h
Rattus norvegicus [35] = test: Distribution of radioactivity was determined in spleen at 30 min after intravenous administration of 1,3-Disubstituted Triacylglycerols in rats; assay type: ADME, organism-based; details: in vivo, 0.5 h

Structure (SMILES) | Distribution of radioactivity (Rattus norvegicus [1]) [% dose/organ] | Radioactivity (Rattus norvegicus [2]) [%] | Distribution of radioactivity (Rattus norvegicus [3]) [% dose/g] | Distribution of radioactivity (Rattus norvegicus [4]) [% dose per organ] | Distribution of radioactivity (Rattus norvegicus [5]) [% dose/organ] | Distribution of radioactivity (Rattus norvegicus [6]) [% dose/organ] | Distribution of radioactivity (Rattus norvegicus [7]) [% dose/g] | Distribution of radioactivity (Rattus norvegicus [8]) [% dose/g] | Distribution of radioactivity (Rattus norvegicus [9]) [% dose/g] | Radioactivity per organ (Rattus norvegicus [10]) [% dose/organ] | Distribution of radioactivity (Rattus norvegicus [11]) [% dose/g] | Distribution of radioactivity (Rattus norvegicus [12]) [% dose/g] | Radioactivity (Rattus norvegicus [13]) [%] | Lipid-soluble radioactivity (Rattus norvegicus [14]) | Distribution of radioactivity (Rattus norvegicus [15]) [% dose/g] | Distribution of radioactivity (Rattus norvegicus [16]) [% dose/g] | Distribution of radioactivity (Rattus norvegicus [17]) [% dose/g] | Lipid-soluble radioactivity (Rattus norvegicus [18]) | Distribution of radioactivity (Rattus norvegicus [19]) [% dose/organ] | Distribution of radioactivity (Rattus norvegicus [20]) [% dose/g] | also measured
CCCCCCCC/C=C/CCCCCCCC(=O)OC(COC(=O)C(CC)Cc1c(I)cc(I)c(N)c1I)COC(=O)C(CC)Cc1c(I)cc(I)c(N)c1I (centres undefined) | 11.3 | 7.4 | 0.01 | 9.8 | 0.1 | 71.6 | 17.3 | 0.25 | 10.2 | 78 | 0.26 | 0.84 | 83.5 | 97.5 | 0.03 | 0.62 | 0.03 | 78.6 | 77 | 5.08 | Radioactivity (Rattus norvegicus [21]): 1.5%; Distribution of radioactivity (Rattus norvegicus [22]): 0.34 % dose/g; Lipid-soluble radioactivity (Rattus norvegicus [23]): 64.7; Lipid-soluble radioactivity (Rattus norvegicus [24]): 93.7; Distribution of radioactivity (Rattus norvegicus [25]): 80 % dose/organ; Lipid-soluble radioactivity (Rattus norvegicus [26]): 88.2; Lipid-soluble radioactivity (Rattus norvegicus [27]): 83; Distribution of radioactivity (Rattus norvegicus [28]): 0.2 % dose/g; Radioactivity (Rattus norvegicus [29]): 4.9%; Lipid-soluble radioactivity (Rattus norvegicus [30]): 26.5; Distribution of radioactivity (Rattus norvegicus [31]): 0.02 % dose/g; Distribution of radioactivity (Rattus norvegicus [32]): 0.3 % dose/organ; Distribution of radioactivity (Rattus norvegicus [33]): 0.01; Distribution of radioactivity (Rattus norvegicus [34]): 0.07 % dose/g; Distribution of radioactivity (Rattus norvegicus [35]): 14.4 % dose/organ
CCCCCCCC/C=C/CCCCCCCC(=O)OC(COC(=O)Cc1c(I)cc(I)c(N)c1I)COC(=O)Cc1c(I)cc(I)c(N)c1I | 14.5 | 0.6 | 0.01 | 16.6 | 0.2 | 59.7 | 2.58 | 0.1 | 9.09 | 69.8 | 0.69 | 0.36 | 95.7 | 62.6 | 0.07 | 0.52 | 0.04 | 85.1 | 72.5 | 0.27 | Radioactivity (Rattus norvegicus [21]): 1.1%; Distribution of radioactivity (Rattus norvegicus [22]): 0.72 % dose/g; Lipid-soluble radioactivity (Rattus norvegicus [23]): 87.5; Lipid-soluble radioactivity (Rattus norvegicus [24]): 59.5; Distribution of radioactivity (Rattus norvegicus [25]): 79 % dose/organ; Lipid-soluble radioactivity (Rattus norvegicus [26]): 54.2 and 86.3; Lipid-soluble radioactivity (Rattus norvegicus [27]): 24.4; Distribution of radioactivity (Rattus norvegicus [28]): 0.38 % dose/g; Radioactivity (Rattus norvegicus [29]): 1.8%; Distribution of radioactivity (Rattus norvegicus [31]): 0.04 % dose/g; Distribution of radioactivity (Rattus norvegicus [32]): 0.5 % dose/organ; Distribution of radioactivity (Rattus norvegicus [33]): 0.01; Distribution of radioactivity (Rattus norvegicus [34]): 0.1 % dose/g; Distribution of radioactivity (Rattus norvegicus [35]): 12 % dose/organ
